Measurements published in patent US20250114374A1, “BCL-2 INHIBITORS” (Newave Pharmaceutical Inc., priority 2021, published 2025).
pIC50: −log10 of the molar value. Where two headings read alike, the source gives them in different places.

System: RS4; 11 with G101V mutation
Test: In vitro anti-proliferation assay (ATPlite luminescence) in BCL-2-dependent ALL cell line RS4;11 with G101V mutation
Format: cell-based
Conditions: read-out: RS411-G101V IC50
In short: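 RS4;11 G101V cells at about 1×10^4 per well were exposed to a range of compound concentrations for about 72 h in medium with 10% FBS. Cellular ATP was measured by ATPlite luminescence after lysis, and IC50 was derived from the dose-response.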

[1] = cellular anti-proliferative IC50, about 72 hours, medium with 10% FBS, ATPlite

Compound | pIC50 [1] | pIC50 (Homo sapiens, RS4-11, 72 h)
Cc1ccccc1[C@@H]1CN(C2CCC(N3CCOC[C@@H]3C)CC2)CCN1C1CC2(CCN(c3ccc(C(=O)NS(=O)(=O)c4cc5c(c([N+](=O)[O-])c4)N[C@H](C4CCOCC4)CO5)c(N4c5cc6cc[nH]c6nc5O[C@H]5COCC[C@@H]54)c3)CC2)C1 (stereo partly drawn) [Example 204, 4-(2-((R)-4-((1R,4S)-4-((S)-3-methylmorpholino)cyclohexyl)-2-(o-tolyl)piperazin-1-yl)-7-azaspiro[3.5]nonan-7-yl)-N-(((R)-5-nitro-3-(tetrahydro-2H-pyran-4-yl)-3,4-dihydro-2H-benzo[b][1,4]oxazin-7-yl)sulfonyl)-2-((5aS,9aR)-6,7,9,9a-tetrahydro-1H-pyrano[3,4-b]pyrrolo[3′,2′:5,6]pyrido[3,2-e][1,4]oxazin-5(5aH)-yl)benzamide] | 7.56 | 
Cc1ccccc1[C@@H]1CN(Cc2cnc(N3CCOC[C@@H]3C)c(C)c2)CCN1C1CC2(CCN(c3ccc(C(=O)NS(=O)(=O)c4cc5c(c([N+](=O)[O-])c4)N[C@H](C4CCOCC4)CO5)c(N4c5cc6cc[nH]c6nc5O[C@H]5COCC[C@@H]54)c3)CC2)C1 [Example 205, 2-[(3R,8S)-2,5-dioxa-9,15,17-triazatetracyclo[8.7.0.0^{3,8}.0^{12,16}]heptadeca-1(10),11,13,16-tetraen-9-yl]-4-{2-[(2R)-4-({5-methyl-6-[(3S)-3-methylmorpholin-4-yl]pyridin-3-yl}methyl)-2-(2-methylphenyl)piperazin-1-yl]-7-azaspiro[3.5]nonan-7-yl}-N-[(3R)-5-nitro-3-(oxan-4-yl)-3,4-dihydro-2H-1,4-benzoxazin-7-ylsulfonyl]benzamide] | 7.67 | 
Cc1ccccc1[C@@H]1CN(Cc2cnc(N3CCOC[C@@H]3C)c(C(F)(F)F)c2)CCN1C1CC2(CCN(c3ccc(C(=O)NS(=O)(=O)c4cc5c(c([N+](=O)[O-])c4)N[C@H](C4CCOCC4)CO5)c(N4c5cc6cc[nH]c6nc5O[C@H]5COCC[C@@H]54)c3)CC2)C1 [Example 206, 2-[(3R,8S)-2,5-dioxa-9,15,17-triazatetracyclo[8.7.0.0^{3,8}.0^{12,16}]heptadeca-1(10),11,13,16-tetraen-9-yl]-4-{2-[(2R)-4-({6-[(3S)-3-methylmorpholin-4-yl]-5-(trifluoromethyl)pyridin-3-yl}methyl)-2-(2-methylphenyl)piperazin-1-yl]-7-azaspiro[3.5]nonan-7-yl}-N-[(3R)-5-nitro-3-(oxan-4-yl)-3,4-dihydro-2H-1,4-benzoxazin-7-ylsulfonyl]benzamide] | 6.64 | 
CC(C)Oc1ccccc1[C@@H]1CN(C2CCC(C)(O)CC2)CCN1C1CC2(CCN(c3ccc(C(=O)NS(=O)(=O)c4cc5c(c([N+](=O)[O-])c4)N[C@H](C4CCOCC4)CO5)c(N4c5cc6cc[nH]c6nc5O[C@H]5COCC[C@@H]54)c3)CC2)C1 (stereo partly drawn) [Example 207, 4-(2-((R)-4-((1r,4R)-4-hydroxy-4-methylcyclohexyl)-2-(2-isopropoxyphenyl)piperazin-1-yl)-7-azaspiro[3.5]nonan-7-yl)-N-(((R)-5-nitro-3-(tetrahydro-2H-pyran-4-yl)-3,4-dihydro-2H-benzo[b][1,4]oxazin-7-yl)sulfonyl)-2-((5aS,9aR)-6,7,9,9a-tetrahydro-1H-pyrano[3,4-b]pyrrolo[3′,2′:5,6]pyrido[3,2-e][1,4]oxazin-5(5aH)-yl)benzamide] | 7.57 | 
CC(C)Oc1ccccc1[C@@H]1CN(C2CCC3(CCOCC3)CC2)CCN1C1CC2(CCN(c3ccc(C(=O)NS(=O)(=O)c4cc5c(c([N+](=O)[O-])c4)N[C@H](C4CCOCC4)CO5)c(N4c5cc6cc[nH]c6nc5O[C@H]5COCC[C@@H]54)c3)CC2)C1 (stereo partly drawn) [Example 209, 2-[(3R,8S)-2,5-dioxa-9,15,17-triazatetracyclo[8.7.0.0^{3,8}.0^{12,16}]heptadeca-1(10),11,13,16-tetraen-9-yl]-4-{2-[(2R)-2-(2-isopropoxyphenyl)-4-{3-oxaspiro[5.5]undecan-9-yl}piperazin-1-yl]-7-azaspiro[3.5]nonan-7-yl}-N-[(3R)-5-nitro-3-(oxan-4-yl)-3,4-dihydro-2H-1,4-benzoxazin-7-ylsulfonyl]benzamide] | 7.79 | 
CC(C)Oc1ccccc1[C@@H]1CN([C@H]2CCOc3cc(F)c(F)cc32)CCN1C1CC2(CCN(c3ccc(C(=O)NS(=O)(=O)c4cc5c(c([N+](=O)[O-])c4)N[C@H](C4CCOCC4)CO5)c(N4c5cc6cc[nH]c6nc5O[C@H]5COCC[C@@H]54)c3)CC2)C1 [Example 210, 4-{2-[(2R)-4-[(4S)-6,7-difluoro-3,4-dihydro-2H-1-benzopyran-4-yl]-2-(2-isopropoxyphenyl)piperazin-1-yl]-7-azaspiro[3.5]nonan-7-yl}-2-[(3R,8S)-2,5-dioxa-9,15,17-triazatetracyclo[8.7.0.0^{3,8}.0^{12,16}]heptadeca-1(10),11,13,16-tetraen-9-yl]-N-[(3R)-5-nitro-3-(oxan-4-yl)-3,4-dihydro-2H-1,4-benzoxazin-7-ylsulfonyl]benzamide] | 7.42 | 
CC(C)Oc1ccccc1[C@@H]1CN([C@@H]2CCOc3cc(F)c(F)cc32)CCN1C1CC2(CCN(c3ccc(C(=O)NS(=O)(=O)c4cc5c(c([N+](=O)[O-])c4)N[C@H](C4CCOCC4)CO5)c(N4c5cc6cc[nH]c6nc5O[C@H]5COCC[C@@H]54)c3)CC2)C1 [Example 211, 4-{2-[(2R)-4-[(4R)-6,7-difluoro-3,4-dihydro-2H-1-benzopyran-4-yl]-2-(2-isopropoxyphenyl)piperazin-1-yl]-7-azaspiro[3.5]nonan-7-yl}-2-[(3R,8S)-2,5-dioxa-9,15,17-triazatetracyclo[8.7.0.0^{3,8}.0^{12,16}]heptadeca-1(10),11,13,16-tetraen-9-yl]-N-[(3R)-5-nitro-3-(oxan-4-yl)-3,4-dihydro-2H-1,4-benzoxazin-7-ylsulfonyl]benzamide] | 7.06 | 
CC(C)Oc1ccccc1[C@@H]1CN([C@@H]2CCOc3c2ccc(F)c3F)CCN1C1CC2(CCN(c3ccc(C(=O)NS(=O)(=O)c4cc5c(c([N+](=O)[O-])c4)N[C@H](C4CCOCC4)CO5)c(N4c5cc6cc[nH]c6nc5O[C@H]5COCC[C@@H]54)c3)CC2)C1 [Example 212, 4-{2-[(2R)-4-[(4R)-7,8-difluoro-3,4-dihydro-2H-1-benzopyran-4-yl]-2-(2-isopropoxyphenyl)piperazin-1-yl]-7-azaspiro[3.5]nonan-7-yl}-2-[(3R,8S)-2,5-dioxa-9,15,17-triazatetracyclo[8.7.0.0^{3,8}.0^{12,16}]heptadeca-1(10),11,13,16-tetraen-9-yl]-N-[(3R)-5-nitro-3-(oxan-4-yl)-3,4-dihydro-2H-1,4-benzoxazin-7-ylsulfonyl]benzamide] | 7.48 | 
CC(C)Oc1ccccc1[C@@H]1CN([C@H]2CCOc3c2ccc(F)c3F)CCN1C1CC2(CCN(c3ccc(C(=O)NS(=O)(=O)c4cc5c(c([N+](=O)[O-])c4)N[C@H](C4CCOCC4)CO5)c(N4c5cc6cc[nH]c6nc5O[C@H]5COCC[C@@H]54)c3)CC2)C1 [Example 213, 4-{2-[(2R)-4-[(4S)-7,8-difluoro-3,4-dihydro-2H-1-benzopyran-4-yl]-2-(2-isopropoxyphenyl)piperazin-1-yl]-7-azaspiro[3.5]nonan-7-yl}-2-[(3R,8S)-2,5-dioxa-9,15,17-triazatetracyclo[8.7.0.0^{3,8}.0^{12,16}]heptadeca-1(10),11,13,16-tetraen-9-yl]-N-[(3R)-5-nitro-3-(oxan-4-yl)-3,4-dihydro-2H-1,4-benzoxazin-7-ylsulfonyl]benzamide] | 7.62 | 
CC(C)Oc1ccccc1[C@@H]1CN([C@H]2CCOc3c(F)cc(F)cc32)CCN1C1CC2(CCN(c3ccc(C(=O)NS(=O)(=O)c4cc5c(c([N+](=O)[O-])c4)N[C@H](C4CCOCC4)CO5)c(N4c5cc6cc[nH]c6nc5O[C@H]5COCC[C@@H]54)c3)CC2)C1 [Example 214, 4-(2-((R)-4-((S)-6,8-difluorochroman-4-yl)-2-(2-isopropoxyphenyl)piperazin-1-yl)-7-azaspiro[3.5]nonan-7-yl)-N-(((R)-5-nitro-3-(tetrahydro-2H-pyran-4-yl)-3,4-dihydro-2H-benzo[b][1,4]oxazin-7-yl)sulfonyl)-2-((5aS,9aR)-6,7,9,9a-tetrahydro-1H-pyrano[3,4-b]pyrrolo[3′,2′:5,6]pyrido[3,2-e][1,4]oxazin-5(5aH)-yl)benzamide] |  | 6.41
CC(C)Oc1ccccc1[C@@H]1CN([C@@H]2CCOc3c(F)cc(F)cc32)CCN1C1CC2(CCN(c3ccc(C(=O)NS(=O)(=O)c4cc5c(c([N+](=O)[O-])c4)N[C@H](C4CCOCC4)CO5)c(N4c5cc6cc[nH]c6nc5O[C@H]5COCC[C@@H]54)c3)CC2)C1 [Example 215, 4-(2-((R)-4-((R)-6,8-difluorochroman-4-yl)-2-(2-isopropoxyphenyl)piperazin-1-yl)-7-azaspiro[3.5]nonan-7-yl)-N-(((R)-5-nitro-3-(tetrahydro-2H-pyran-4-yl)-3,4-dihydro-2H-benzo[b][1,4]oxazin-7-yl)sulfonyl)-2-((5aS,9aR)-6,7,9,9a-tetrahydro-1H-pyrano[3,4-b]pyrrolo[3′,2′:5,6]pyrido[3,2-e][1,4]oxazin-5(5aH)-yl)benzamide] |  | 7.32
CC(C)Oc1ccccc1[C@@H]1CN([C@H]2COCc3cc(F)c(F)cc32)CCN1C1CC2(CCN(c3ccc(C(=O)NS(=O)(=O)c4cc5c(c([N+](=O)[O-])c4)N[C@H](C4CCOCC4)CO5)c(N4c5cc6cc[nH]c6nc5O[C@H]5COCC[C@@H]54)c3)CC2)C1 [Example 216, 4-(2-((R)-4-((R)-6,7-difluoroisochroman-4-yl)-2-(2-isopropoxyphenyl)piperazin-1-yl)-7-azaspiro[3.5]nonan-7-yl)-N-(((R)-5-nitro-3-(tetrahydro-2H-pyran-4-yl)-3,4-dihydro-2H-benzo[b][1,4]oxazin-7-yl)sulfonyl)-2-((5aS,9aR)-6,7,9,9a-tetrahydro-1H-pyrano[3,4-b]pyrrolo[3′,2′:5,6]pyrido[3,2-e][1,4]oxazin-5(5aH)-yl)benzamide] |  | 7.51
